Experimental data: patent US20240408169A1 (priority 2023, published 2024)
pIC50: −log10 of the molar value. Where two headings read alike, the source gives them in different places. *1 amine or outer side, *2 acyl side, *3 side chain or, on linkers, in order; H or OH if unused. Where a SMILES comes first, the peptide text is derived from it. Bridges are numbered along the chain shown (N, C = ends). [ ]: non-standard residue; d: D form. The star is where a group is joined. X47 = C[C@@H]1CN(c2ccc(-c3ccc(Cl)cc3C[C@@H](C(=O)[*:2])N(C)[*:1])cc2)C[C@H](C)N1C; X74 = C[C@@H]1CN(c2ccc(-c3ccc(Cl)cc3C[C@@H](C(=O)[*:2])N(C)[*:1])cc2)C[C@@H](C)O1; X38 = CN([C@@H](Cc1cc(Cl)ccc1-c1ccc(N2C[C@H]3COC[C@H]3C2)cc1)C(=O)[*:2])[*:1]; X48 = CN(C)C[C@H]1CN(c2ccc(-c3ccc(Cl)cc3C[C@@H](C(=O)[*:2])N(C)[*:1])cc2)CCO1; X75 = CC(C)C(=O)N1C2C=C(c3ccc(Cl)cc3C[C@@H](C(=O)[*:2])N(C)[*:1])CC1COC2; X107 = CN([C@@H](Cc1cc(Cl)ccc1-c1ccc(-c2cnn(C)c2)cc1)C(=O)[*:2])[*:1]; X12 = CN1CCN(c2ccc(-c3ccc(F)cc3C[C@@H](C(=O)[*:2])N(C)[*:1])cc2)CC1; NMePhe(5-Cl,2-O(2-Pym)) = CN[C@@H](Cc1cc(Cl)ccc1Oc1ncccn1)C(=O)O; X99 = CC(=O)N1CCC(Oc2ccc(Cl)cc2C[C@@H](C(=O)[*:2])N(C)[*:1])CC1; X111 = CN([C@@H](Cc1cc(Cl)ccc1-c1nnc(C2CC2)o1)C(=O)[*:2])[*:1]; NMehhhLys(Me) = CN([C@@H](CCCCCCCN(C)[*:3])C(=O)[*:2])[*:1]; X5 = CN([C@@H](Cc1cc(Cl)ccc1-c1cnn2c1OCCC2)C(=O)[*:2])[*:1]; X22 = CN([C@@H](Cc1cc(Cl)ccc1-c1cnn(C)c1)C(=O)[*:2])[*:1]; NMe(hhhLys) = CN([C@@H](CCCCCCCN[*:3])C(=O)[*:2])[*:1]; Cyclobutanecarbonyl(1-CF3) = O=C(C1(C(F)(F)F)CCC1)*; cBuCO(3,3-F2-1-CF3) = O=C(C1(C(F)(F)F)CC(F)(F)C1)*; Pro(trans-4-F) = O=C(O)[C@@H]1C[C@@H](F)CN1; Gly(cPr) = N[C@H](C(=O)O)C1CC1

Key:
CyclinA2/CDK2 = biological target: T1, CyclinA2/CDK2 (Homo sapiens, UniProt P20248); assay: Fluorescence Polarization (FP) competitive binding assay, Cyclin A2/Cdk2;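 note: plates equilibrated two hours at room temperature before polarization reading, IC50 fitted from eight-concentration compound titration curves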
T1 construct: purchased CRELUX Protein Services

CyclinB1/CDK1 = biological target: T2, CyclinB1/CDK1 (Homo sapiens, UniProt P14635); assay: Fluorescence Polarization (FP) competitive binding assay, Cyclin B1/Cdk1;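 note: fluorescence polarization read after equilibration at room temperature, with IC50 taken from serially diluted dose-response curves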
T2 construct: purchased Eurofins, discovery 14-450

CyclinE1/CDK2 = biological target: T3, CyclinE1/CDK2 (Homo sapiens, UniProt P24864); assay: Fluorescence Polarization (FP) competitive binding assay, Cyclin E1/Cdk2;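 note: readings taken after two-hour equilibration at room temperature in HEPES buffer with NaCl, DTT, NP-40 and BSA, IC50 fitted from eight-concentration serial dilution series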
T3 construct: purchased Eurofins, discovery 14-475

WI-38 cells = assay: MTT proliferation assay, WI-38; format: cell-based; conditions: 3 days compound exposure, 1:3 serial dilution starting at 10 μM;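 note: Eight- or ten-point dilution series, with exposure length chosen to span about three to four cell doublings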
NCI-H1048 cells = assay: MTT proliferation assay, NCI-H1048; format: cell-based; conditions: 5 days compound exposure, 1:3 serial dilution starting at 10 μM;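 note: Dose-response in 96-well plates over 8 or 10 concentration points, with exposure spanning 3-4 cell doublings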
OVCAR3 cells = assay: MTT proliferation assay, OVCAR3; format: cell-based; conditions: 5 days compound exposure, 1:3 serial dilution starting at 10 μM;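 note: compound given as an 8- or 10-point series, one day after plating, with exposure covering roughly 3-4 cell doublings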
[1] = 8 nM Cyclin A2/Cdk2, 2 nM FAM probe, average of 2-3 independent experiments, read-out: Cyclin A FP IC50
[2] = 10 nM Cyclin B1/Cdk1, 2 nM FAM probe; average of 2-3 independent experiments; read-out: Cyclin B FP IC50
[3] = 10 nM Cyclin E1/Cdk2, 2 nM FAM probe, average of 2-3 independent experiments, read-out: Cyclin E FP IC50
[4] = read-out: Cyclin B FP IC50; 10 nM Cyclin B1/Cdk1, 2 nM FAM probe; average of 2-3 independent experiments

SMILES	ring closure, yield of all isomers (from CC(C)C[C@H](N)C(=O)N(C)[C@@H](Cc1cc(Cl)cnc1OC1CC1)C(=O)N(C)CCCC/C=C\C[C@@H](C(=O)O)N(C)C(=O)OCC1c2ccccc2-c2ccccc21, amide bond, PyBOP/HOAt/DIPEA, DCM, 2.57 mM, 25.0 °C) [%]	ring closure, yield of all isomers (from C=CCCCCN(C)C(=O)[C@H](Cc1cc(F)ccc1Br)N(C)C(=O)[C@H](CC(C)C)NC(=O)[C@H](CC=C)N(C)C(=O)[C@@H](NC(=O)OC(C)(C)C)C1CC1, rcm bond, Hoveyda-Grubbs II, DCE, 6.3 mM, 70.0 °C) [%]	pIC50 (CyclinA2/CDK2; [1])	pIC50 (CyclinB1/CDK1; [2])	pIC50 (CyclinE1/CDK2; [3])	GI50 (WI-38 cells) [nM]	GI50 (NCI-H1048 cells) [nM]	GI50 (OVCAR3 cells) [nM]	pIC50 (CyclinA2/CDK2)	pIC50 (CyclinB1/CDK1; [4])	pIC50 (CyclinE1/CDK2)	pIC50 (CyclinA2/CDK2; read-out: Cyclin A FP IC50, 8 nM Cyclin A2/Cdk2, 2 nM FAM probe, average of 2-3 independent experiments)
CC(C)C[C@@H]1NC(=O)[C@@H](N(C)C(=O)OCC2c3ccccc3-c3ccccc32)C/C=C\CCCCN(C)C(=O)[C@H](Cc2cc(Cl)cnc2OC2CC2)N(C)C1=O	30											
CC(C)C[C@@H]1NC(=O)[C@@H](N(C)C(=O)[C@@H](NC(=O)OC(C)(C)C)C2CC2)CC=CCCCCN(C)C(=O)[C@H](Cc2cc(F)ccc2Br)N(C)C1=O		67										
CC(C)C[C@@H]1NC(=O)[C@@H](N(C)C(=O)[C@@H](NC(=O)[C@@H]2C[C@@H](F)CN2C(=O)C2(C(F)(F)F)CC(F)(F)C2)C2CC2)CCCCCCCN(C)C(=O)[C@H](Cc2cc(F)ccc2-c2ccc(N3CCN(C)CC3)cc2)N(C)C1=O [Example 353] ({cBuCO(3,3-F2-1-CF3)}-[Pro(trans-4-F)][Gly(cPr)][NMehhhLys(Me)]L[X12]; lactam 3-C)			7.70	7.70	6.66	3490	10	10				
CCN(C(=O)[C@@H](NC(=O)[C@@H]1C[C@@H](F)CN1C(=O)C1(C(F)(F)F)CC(F)(F)C1)C1CC1)[C@H]1CCCCCCCN(C)C(=O)[C@H](Cc2cc(Cl)cnc2OC2CC2)N(C)C(=O)[C@H](CC(C)C)NC1=O [Example 219]						14100	40	80	7.00	7.70	5.84	
CC(C)C[C@@H]1NC(=O)[C@@H](N(C)C(=O)[C@@H](NC(=O)[C@@H]2C[C@@H](F)CN2C(=O)[C@@]2(C(F)(F)F)CCCCO2)C2CC2)C/C=C\CCCCN(C)C(=O)[C@H](Cc2cc(Cl)ccc2-c2cnn(C)c2)N(C)C1=O [Example 174]			7.70	7.70	7.00	6980	10	10				
CC(=O)N1CCC(Oc2ccc(Cl)cc2C[C@H]2C(=O)N(C)CCCCCCC[C@H](N(C)C(=O)[C@@H](NC(=O)[C@@H]3C[C@@H](F)CN3C(=O)C3(C(F)(F)F)CC(F)(F)C3)C3CC3)C(=O)N[C@@H](CC(C)C)C(=O)N2C)CC1 [Example 243] ({cBuCO(3,3-F2-1-CF3)}-[Pro(trans-4-F)][Gly(cPr)][NMehhhLys(Me)]L[X99]; lactam 3-C)						13300	50	40	7.30	7.70	6.16	
CC(C)C[C@@H]1NC(=O)[C@@H](N(C)C(=O)[C@@H](NC(=O)[C@@H]2C[C@@H](F)CN2C(=O)C2(C(F)(F)F)CC(F)(F)C2)C2CC2)CCCCCCCN(C)C(=O)[C@H](Cc2cc(Cl)ccc2-c2ccc(N3CCO[C@@H](CN(C)C)C3)cc2)N(C)C1=O [Example 410] ({cBuCO(3,3-F2-1-CF3)}-[Pro(trans-4-F)][Gly(cPr)][NMehhhLys(Me)]L[X48]; lactam 3-C)			7.70	7.70	6.19	2000	10	10				
CC(C)C[C@@H]1NC(=O)[C@@H](N(C)C(=O)[C@@H](NC(=O)[C@@H]2C[C@@H](F)CN2C(=O)C2(C(F)(F)F)CC(F)(F)C2)C2CC2)CCCCCCCN(C)C(=O)[C@H](Cc2cc(Cl)ccc2-c2ccc(N3C[C@H]4COC[C@H]4C3)cc2)N(C)C1=O [Example 363] ({cBuCO(3,3-F2-1-CF3)}-[Pro(trans-4-F)][Gly(cPr)][NMehhhLys(Me)]L[X38]; lactam 3-C)			7.70	7.70	6.33	1430	10	10				
CC(C)C[C@@H]1NC(=O)[C@@H](N(C)C(=O)[C@@H](NC(=O)[C@@H]2C[C@@H](F)CN2C(=O)C2(C(F)(F)F)CC(F)(F)C2)C2CC2)CCCCCCCN(C)C(=O)[C@H](Cc2cc(Cl)ccc2-c2ccc(-c3cnn(C)c3)cc2)N(C)C1=O [Example 338] ({cBuCO(3,3-F2-1-CF3)}-[Pro(trans-4-F)][Gly(cPr)][NMehhhLys(Me)]L[X107]; lactam 3-C)			7.52	7.70	5.77	18900	20	20				
CC(C)C[C@@H]1NC(=O)[C@@H](N(C)C(=O)[C@@H](NC(=O)[C@@H]2C[C@@H](F)CN2C(=O)C2(C(F)(F)F)CCC2)C2CC2)CCCCCCCNC(=O)[C@H](Cc2cc(Cl)ccc2-c2cnn(C)c2)N(C)C1=O [Example 70] ({Cyclobutanecarbonyl(1-CF3)}-[Pro(trans-4-F)][Gly(cPr)][NMe(hhhLys)]L[X22]; lactam 3-C)			7.70	7.70	6.54	10100	10	10				
CC(C)C[C@@H]1NC(=O)[C@@H](N(C)C(=O)[C@@H](NC(=O)[C@@H]2C[C@@H](F)CN2C(=O)C2(C(F)(F)F)CC(F)(F)C2)C2CC2)CCCCCCCNC(=O)[C@H](Cc2cc(Cl)ccc2C2=CC3COCC(C2)N3C(=O)C(C)C)N(C)C1=O (stereo partly drawn) [Example 194] ({cBuCO(3,3-F2-1-CF3)}-[Pro(trans-4-F)][Gly(cPr)][NMe(hhhLys)]L[X75]; lactam 3-C)			7.70	7.70	6.27	5610	10	10				
CC(C)C[C@@H]1NC(=O)[C@@H](N(C)C(=O)[C@@H](NC(=O)[C@@H]2C[C@@H](F)CN2C(=O)C2(C(F)(F)F)CCC2)C2CC2)CCCCCCCN(C)C(=O)[C@H](Cc2cc(Cl)ccc2Oc2ncccn2)N(C)C1=O [Example 159] ({Cyclobutanecarbonyl(1-CF3)}-[Pro(trans-4-F)][Gly(cPr)][NMehhhLys(Me)]L[NMePhe(5-Cl,2-O(2-Pym))]; lactam 3-C)			7.10	7.70	6.70	9450	10	20				
CC(C)C[C@@H]1NC(=O)[C@@H](N(C)C(=O)[C@@H](NC(=O)[C@@H]2C[C@@H](F)CN2C(=O)C2(C(F)(F)F)CC(F)(F)C2)C2CC2)CCCCCCCN(C)C(=O)[C@H](Cc2cc(Cl)ccc2-c2nnc(C3CC3)o2)N(C)C1=O [Example 240] ({cBuCO(3,3-F2-1-CF3)}-[Pro(trans-4-F)][Gly(cPr)][NMehhhLys(Me)]L[X111]; lactam 3-C)						8730	10	10		7.70	6.85	7.70
CC(C)C[C@@H]1NC(=O)[C@@H](N(C)C(=O)[C@@H](NC(=O)[C@@H]2C[C@@H](F)CN2C(=O)C2(C(F)(F)F)CC(F)(F)C2)C2CC2)CCCCCCCN(C)C(=O)[C@H](Cc2cc(Cl)ccc2-c2cnn3c2OCCC3)N(C)C1=O [Example 191] ({cBuCO(3,3-F2-1-CF3)}-[Pro(trans-4-F)][Gly(cPr)][NMehhhLys(Me)]L[X5]; lactam 3-C)			7.70	7.70	6.59	2050	10	10				
CC(C)C[C@@H]1NC(=O)[C@@H](N(C)C(=O)[C@@H](NC(=O)[C@@H]2C[C@@H](F)CN2C(=O)C2(C(F)(F)F)CC(F)(F)C2)C2CC2)CCCCCCCN(C)C(=O)[C@H](Cc2cc(Cl)ccc2-c2ccc(N3C[C@@H](C)N(C)[C@@H](C)C3)cc2)N(C)C1=O [Example 384] ({cBuCO(3,3-F2-1-CF3)}-[Pro(trans-4-F)][Gly(cPr)][NMehhhLys(Me)]L[X47]; lactam 3-C)			7.70	7.70	6.23	2210	10	10				
CC(C)C[C@@H]1NC(=O)[C@@H](N(C)C(=O)[C@@H](NC(=O)[C@@H]2C[C@@H](F)CN2C(=O)C2(C(F)(F)F)CC(F)(F)C2)C2CC2)CCCCCCCN(C)C(=O)[C@H](Cc2cc(Cl)ccc2-c2ccc(N3C[C@@H](C)O[C@H](C)C3)cc2)N(C)C1=O [Example 389] ({cBuCO(3,3-F2-1-CF3)}-[Pro(trans-4-F)][Gly(cPr)][NMehhhLys(Me)]L[X74]; lactam 3-C)			7.70	7.70	6.10	17600	20	10				
CC(C)C[C@@H]1NC(=O)[C@@H](N(C)C(=O)[C@@H](NC(=O)[C@@H]2C[C@@H](F)CN2C(=O)C2(C(F)(F)F)CCC2)C2CC2)CC=CCCCCN(C)C(=O)[C@H](Cc2cc(Cl)ccc2-c2cnn(C3CC3)c2)N(C)C1=O [Example 81]			7.40	7.70	6.52	4300	40	50				
CCN(C(=O)[C@@H](NC(=O)[C@@H]1C[C@@H](F)CN1C(=O)C1(C(F)(F)F)CC(F)(F)C1)C1CC1)[C@H]1CCCCCCCN(C)C(=O)[C@H](Cc2cc(Cl)ccc2-c2ccc(N3CCN(C)CC3)cc2)N(C)C(=O)[C@H](CC(C)C)NC1=O [Example 388]			7.70	7.70	5.41	3500	20	20				
